From patent publication US12084411B2, “Hinokitiol analogues, methods of preparing and pharmaceutical compositions thereof” (The Board of Trustees of the University of Illinois, priority 2018, dated 2024)
Entries after “also recorded” stand apart in the source; their conditions may differ.

Legend:
[1] = tested on: fet3Δftr1Δ yeast; test: Growth rescue of fet3Δftr1Δ yeast with small molecules in liquid media; format: cell-based, Saccharomyces cerevisiae; details: liquid low iron SD media, 10 μM FeCl3
Method: Growth rescue in yeast was performed similar to previously reported (20) using 10 μM hinokitiol in low iron SD liquid media containing 10 μM FeCl3 in a 96-well plate unless otherwise noted. Wild type and fet3Δftr1Δ controls treated with vehicle (DMSO) were performed under identical conditions using the same low iron SD media containing 10 μM FeCl3 in the absence of hinokitiol. Yeast were grown overnight in YPD media and diluted at an OD600 of 0.1 in SD media, diluted 10-fold, and incubated at 30° C. with continuous shaking (200 rpm). The OD600 was obtained 24-48 hours after inoculation unless otherwise noted.
Small molecule dose-response (FIG. 1F) with hinokitiol and C2-deoxy hinokitiol (C2deOHino, see synthesis below) was determined by addition of the small molecule (40X stock solution in DMSO) to give the indicated final concentrations.

[2] = tested on: Alas2-deficient sauternes zebrafish; test: Hemoglobinization in Alas2-deficient sauternes zebrafish; format: in vivo, Danio rerio; details: heterozygous cross of +/sau fish, 1 μM, 48 hours
Method: Either mutant or morphant embryos were allowed to develop to >24 hours post fertilization (hpf), then dechorionated with pronase as previously described (81). The dechorionated embryos or morphants were then incubated in the presence of 1 μM hinokitiol (or vehicle) and 10 μM iron (III) citrate for an additional forty-eight hours. Vehicle treated embryos were exposed to […]. C2deOHino (1 μM) with iron (III) citrate (10 μM) was used as a negative control. Control and either mutant or morphant embryos at ˜72 hpf were either (a) directly stained by o-dianisidine (79) or (b) mechanically homogenized as previously described for flow cytometry (75, 78).

[3] = tested on: DMT1-deficient MEL cells; test: Differentiation and hemoglobinization of DMT1-deficient MEL cells; format: cell-based, mouse; details: 1 μM, three days
Method: Differentiation of MEL Cells with DMSO (FIG. 3D) To perform differentiation experiments with MEL cells (39), the indicated MEL cells were diluted to 1×10^5 cells/mL in MEL Complete media containing 10 μM iron (III) citrate and 2% DMSO in the absence or presence of 1 μM hinokitiol or C2deOHino (added from 1000X stock in DMSO) in 12-well plates. Cells were then incubated at 37° C. for 72 hours unless otherwise noted.
Hemoglobinized MEL cells were quantified three days after DMSO induction through o-dianisidine staining similar to previously reported (74). Cells were centrifuged three days after induction and rinsed with PBS. The cells were then suspended in a solution containing 7.5 mM o-dianisidine, 900 mM H2O2, and 150 mM acetic acid in water at ˜1×10^6 cells/mL. Cells were then imaged on an AXIO Zoom V16 microscope to obtain color images. The number of stained cells were then quantified via ImageJ analysis and compared to the number of total cells in each image. To determine that hinokitiol requires DMSO induction for hemoglobinization, 2% DMSO was not added at the beginning of the experiment before a 72-hour incubation and o-dianisidine staining.
MEL cells were induced for differentiation as described above and incubated at 37° C. for 70 hours before addition of a saturated iron-transferrin (^55Fe2Tf) solution (40 nM final concentration from a 10 μM ^55Fe2Tf stock). The cells were incubated for an additional two hours. After completion, the cells were counted with a hemocytometer, the media was removed after centrifugation, the cells were rinsed with PBS (×3), and the cell suspension was diluted in scintillation cocktail and radioactivity was determined. […] The cells were incubated for an additional eight hours. After completion, the cells were counted with a hemocytometer, the media was removed after centrifugation, and the cells were rinsed with PBS (×3). The cells were then lysed with RIPA buffer, diluted with water, and heme was extracted using a 3:1 ethyl acetate:acetic acid solution. An aliquot of the organic extract was diluted in scintillation cocktail and radioactivity was determined. Radioactive levels were normalized per cell (counted by hemocytometer) relative to wild type (DS19) levels.
MEL cells were induced for differentiation as described above and incubated at 37° C. for 72 hours. After completion, the cells were counted with a hemocytometer, the media was removed after centrifugation, and cells were rinsed with PBS (×2). The cells were then lysed through repeated freeze/thaw cycles with water, and hemoglobin levels per 10^6 cells were determined as previously described (77) by determining the OD415 after centrifugation. Globin levels by western blot were determined after differentiation as described above. After incubation for 72 hours, cells were lysed and globin levels were determined by western blot as described above.

[4] = tested on: DMT1-deficient Caco-2 monolayers; test: 55Fe uptake and transport in DMT1-deficient Caco-2 monolayers; details: for iron uptake and transepithelial transport: apical addition (hinokitiol 500 nM), pH 5.5 apical, pH 7.4 basolateral, four hours
Method: Media from differentiated Caco-2 monolayers (P25-50, 21-28 days post seeding) grown on PET inserts in 6-well plates was aspirated, and monolayers were rinsed with PBS. 2 mL of basolateral fluid (serum-free DMEM at pH=7.4 in 10 mM HEPES buffer) was added to the basolateralside, and 1 mL of apical fluid (serum-free DMEM at pH=5.5 in 10 mM MES buffer) containing 200 nM ^55FeCl3 or the indicated concentration of FeCl3 and either DMSO vehicle, hinokitiol, C2deOHino, deferiprone, PIH, SIH, or deferoxamine mesylate (Sigma D9533) (500 nM Hino/C2deOHino for DMT1-deficiency, 1 μM Hino/C2deOHino for FPN1-deficiency, or indicated concentration of small molecule from a 1000X stock in DMSO) was added to the apical side via addition on the wall of the membrane insert without disrupting the cell monolayer. The monolayers were then incubated for four hours at 37° C. unless otherwise noted. A 100 μL aliquot of the basolateral fluid was removed, diluted in scintillation cocktail, and radioactivity was determined on a liquid scintillation counter to quantify relative amounts of ^55Fe transport. To determine intracellular ^55Fe, the basolateral and apical media was removed, and the monolayer was rinsed with PBS (×2). The cells were then lysed with 500 μL of 200 mM NaOH with nutator mixing overnight, and radioactivity was determined on a liquid scintillation counter after diluting the cell lysate in scintillation cocktail. All values were normalized to shControl monolayers unless otherwise noted. Absolute iron levels were determined through calibration of ^55Fe radioactivity levels with known standards and average mg of protein per membrane was determined by protein lysis with RIPA buffer containing protease inhibitors and quantified through a BCA kit according to manufacturer instructions.
TEER determination in Caco-2 monolayers (FIG. 12D and FIG. 14L) To determine Caco-2 membrane integrity, transport studies were performed as described above, except for the use of non-radioactive iron instead of ^55FeCl3. At the indicated time points, the transepithelial electrical resistance (TEER) was determined with an epithelial voltohmmeter and compared to the TEER of the membrane at the beginning of the experiment.

Row | Compound | restoration of fet3Δftr1Δ yeast growth, small molecule dose-response [1] | hemoglobinization [2] | 55Fe uptake [3] | 55Fe-heme incorporation [3] | hemoglobinization [3] | iron uptake and transepithelial transport [4] | restoration of fet3Δftr1Δ yeast growth, small molecule dose-response ([1]; listed as Hinokitiol) | hemoglobinization ([2]; listed as Hinokitiol) | monolayer integrity (TEER) ([4]; 500 nM)
1 | CC(C)c1cccc(=O)cc1 [C2deOHino, C2-deoxy hinokitiol] | no biological activity; also recorded: does not | do not promote hemoglobinization | no effect | no effect | no effect | did not promote both uptake and transport |  |  | 
2 | CC(C)c1cccc(=O)c(O)c1 [hinokitiol] | dose-dependently restores yeast growth | did not rescue | restored | restored | restored | restored uptake and transport | rescues growth of iron transporter-deficient yeast (Fet3Ftr1) at low concentrations | do not promote hemoglobinization | did not disrupt monolayer integrity
